Laboratory results: PubChem BioAssay (NCI)
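Cultured in 96-well plates, cells were exposed to test compound for 48 hours across five concentrations. TGI is the concentration that stops growth completely.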

Tests used:
Experiment in all cases: NCI tumour cell line growth inhibition, 48 h
MDA-MB-435 = tested on: MDA-MB-435
SF-295 CNS = tested on: SF-295 CNS
HCT-15 colon = tested on: HCT-15 colon
OVCAR-5 ovarian = tested on: OVCAR-5 ovarian
MDA-N = tested on: MDA-N
DU-145 prostate = tested on: DU-145 prostate
IGROV1 ovarian = tested on: IGROV1 ovarian
SW-620 colon = tested on: SW-620 colon
CCRF-CEM leukemia = tested on: CCRF-CEM leukemia
HOP-92 NSCLC = tested on: HOP-92 NSCLC
SF-268 CNS = tested on: SF-268 CNS
T-47D breast = tested on: T-47D breast
NCI-H460 lung = tested on: NCI-H460 lung
SK-MEL-28 melanoma = tested on: SK-MEL-28 melanoma
SK-MEL-5 melanoma = tested on: SK-MEL-5 melanoma
786-0 renal = tested on: 786-0 renal
OVCAR-4 ovarian = tested on: OVCAR-4 ovarian
NCI/ADR-RES ovarian = tested on: NCI/ADR-RES ovarian
SNB-19 CNS = tested on: SNB-19 CNS
PC-3 prostate = tested on: PC-3 prostate
NCI-H226 lung = tested on: NCI-H226 lung
UACC-257 melanoma = tested on: UACC-257 melanoma
OVCAR-3 ovarian = tested on: OVCAR-3 ovarian
EKVX NSCLC = tested on: EKVX NSCLC
NCI-H23 lung = tested on: NCI-H23 lung
A549 NSCLC = tested on: A549 NSCLC
HT29 colon = tested on: HT29 colon
A498 renal = tested on: A498 renal
ACHN renal = tested on: ACHN renal
TK-10 renal = tested on: TK-10 renal
SK-OV-3 ovarian = tested on: SK-OV-3 ovarian
HCT-116 colon = tested on: HCT-116 colon
CAKI-1 renal = tested on: CAKI-1 renal
U251 CNS = tested on: U251 CNS
UO-31 renal = tested on: UO-31 renal
NCI-H522 lung = tested on: NCI-H522 lung
COLO 205 colon = tested on: COLO 205 colon
SK-MEL-2 melanoma = tested on: SK-MEL-2 melanoma
HS 578T breast = tested on: HS 578T breast
UACC-62 melanoma = tested on: UACC-62 melanoma
BT-549 breast = tested on: BT-549 breast
SF-539 CNS = tested on: SF-539 CNS
HOP-62 NSCLC = tested on: HOP-62 NSCLC
RXF 393 renal = tested on: RXF 393 renal
MCF7 breast = tested on: MCF7 breast
SNB-75 CNS = tested on: SNB-75 CNS
MDA-MB-231 breast = tested on: MDA-MB-231 breast
HCC-2998 colon = tested on: HCC-2998 colon
M14 melanoma = tested on: M14 melanoma
KM12 colon = tested on: KM12 colon
SN12C renal = tested on: SN12C renal
OVCAR-8 ovarian = tested on: OVCAR-8 ovarian
K-562 leukemia = tested on: K-562 leukemia
MALME-3M melanoma = tested on: MALME-3M melanoma
MOLT-4 leukemia = tested on: MOLT-4 leukemia
LOX IMVI melanoma = tested on: LOX IMVI melanoma

Measured: TGI

O=C(O)c1cc(NCc2cc(O)ccc2O)ccc1O
50.6 µM: SW-620 colon
55.1 µM: MDA-N
40.7 µM: NCI-H522 lung
not listed: OVCAR-8 ovarian | K-562 leukemia | MALME-3M melanoma | MOLT-4 leukemia | LOX IMVI melanoma
> 100 µM: all other assays above

COP(=O)(CP(=O)(OC)OCCC(C)CCC=C(C)C)OC (configuration not stated)
87.8 µM: U251 CNS
44.7 µM: MDA-MB-231 breast
not listed: DU-145 prostate | HOP-92 NSCLC | HT29 colon | HS 578T breast | UACC-62 melanoma
> 100 µM: all other assays above
